Tested on: COR L88 complex tumor spheroid viability
Assay: Anticancer human tumor COR L88 cell line growth inhibition;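 also: compound exposure lasted 7 days before viability readout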;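 as to viability, T/C: percent of DMSO vehicle-treated spheroids = 100%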
Conditions: for IC50: curve of first compound; for viability, T/C: stronger effect = lower value
In short: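 Complex spheroids of malignant cells with endothelial cells and mesenchymal stem cells; agents alone or combined, from near clinical Cmax (or 10 microM if unknown) down in half-log steps, 0.25% DMSO final.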

COc1ccc([C@@H](O)c2cc(-c3ncnc4cc(N5CCOCC5)ccc34)c(F)cc2Cl)nn1 + CC[C@@]1(O)C(=O)OCc2c1cc1n(c2=O)Cc2cc3c(CN(C)C)c(O)ccc3nc2-1
IC50 (second compound 0.003 µM): 3180 nM | IC50 (second compound 0.00949 µM): 4000 nM | IC50 (second compound 0.03 µM): 98.3 nM | IC50 (second compound 0.0949 µM): 122 nM | IC50 (second compound 0.3 µM): 132 nM | viability, T/C (second compound 0.003 µM, first compound 0.0316 µM): 96.3% | viability, T/C (second compound 0.003 µM, first compound 0.1 µM): 101% | viability, T/C (second compound 0.003 µM, first compound 0.316 µM): 94.2% | viability, T/C (second compound 0.003 µM, first compound 1 µM): 71.8% | viability, T/C (second compound 0.003 µM, first compound 3.16 µM): 52.3% | viability, T/C (second compound 0.003 µM, first compound 10 µM): 34.6% | viability, T/C (second compound 0.00949 µM, first compound 0.0316 µM): 68.3% | viability, T/C (second compound 0.00949 µM, first compound 0.1 µM): 68.7% | viability, T/C (second compound 0.00949 µM, first compound 0.316 µM): 67.9% | viability, T/C (second compound 0.00949 µM, first compound 1 µM): 57.6% | viability, T/C (second compound 0.00949 µM, first compound 3.16 µM): 52.9% | viability, T/C (second compound 0.00949 µM, first compound 10 µM): 40.6% | viability, T/C (second compound 0.03 µM, first compound 0.0316 µM): 53.1% | viability, T/C (second compound 0.03 µM, first compound 0.1 µM): 53.6% | viability, T/C (second compound 0.03 µM, first compound 0.316 µM): 46.6% | viability, T/C (second compound 0.03 µM, first compound 1 µM): 40.1% | viability, T/C (second compound 0.03 µM, first compound 3.16 µM): 32% | viability, T/C (second compound 0.03 µM, first compound 10 µM): 38.5% | viability, T/C (second compound 0.0949 µM, first compound 0.0316 µM): 55.3% | viability, T/C (second compound 0.0949 µM, first compound 0.1 µM): 53.2% | viability, T/C (second compound 0.0949 µM, first compound 0.316 µM): 45.2% | viability, T/C (second compound 0.0949 µM, first compound 1 µM): 40.5% | viability, T/C (second compound 0.0949 µM, first compound 3.16 µM): 31.8% | viability, T/C (second compound 0.0949 µM, first compound 10 µM): 31.7% | viability, T/C (second compound 0.3 µM, first compound 0.0316 µM): 54.2% | viability, T/C (second compound 0.3 µM, first compound 0.1 µM): 51% | viability, T/C (second compound 0.3 µM, first compound 0.316 µM): 43.9% | viability, T/C (second compound 0.3 µM, first compound 1 µM): 37.6% | viability, T/C (second compound 0.3 µM, first compound 3.16 µM): 18.6% | viability, T/C (second compound 0.3 µM, first compound 10 µM): 8.14%
